pKd: −log10 of the molar value. ≈ marks a conversion by molar mass, not a printed value. Read-outs that look alike come from different tables or passages of the source.
Experiments:
[1] = target: HA2 domain (rHA2, derived from the sequence of RgpA); assay: ELISA binding of plate-coated porphyrin to rHA2; design: species or system Porphyromonas gingivalis; settings: FIG. 5, mean of three similar KD50s, read-out: KD50 to HA2
Procedure: The KD50 of the mono-adducts 20 and 21 to HA2 was established using Enzyme-Linked ImmunoSorbent Assay (ELISA), whereby a 96-well polystyrene plate was coated with either the mono-adducts 20 and 21 or hemin in an alkaline coating buffer at pH 9.0. The plates were then washed and blocked for 30 min with a phosphate buffered saline solution containing Tween-20, a […] detergent to prevent any non-specific binding. Dilutions of HA2 in a slightly acidic acetate buffer at pH 5.5 were then titrated down the rows of the 96-well plate and the plate was incubated in an IR Sensor CO2 incubator at 37° C. for 1.5 h to allow binding of either the mono-adducts 20 and 21 or hemin to HA2. […] A secondary goat anti-mouse antibody conjugated with alkaline phosphatase (AP) was then added to detect the primary antibody and the binding of either the mono-adducts 20 and 21 or hemin to HA2 was recorded as optical density on a Bio-rad Microplate reader as the amount of dephosphorylation of the substrate para-nitrophenolphosphate to para-nitrophenol catalyzed by AP. […]
The mixture of mono-metronidazole-substituted adducts 20 and 21 and heme (both at 5 μg/ml) were coated on the plastic well surfaces of a 96-well plate in coating buffer at pH 9.0. […] Apparent dissociation constants were calculated from best-fit KD50 binding curves.

[2] = target: HA2 domain (rHA2, derived from the sequence of RgpA); settings: known value for the standard; read-out: binding dissociation constant to HA2; cited from earlier work
F. nucleatum = assay: Growth inhibition assay on an unrelated organism; type: cell-based, Fusobacterium nucleatum; settings: 20 μM, over 72 h (FIG. 7C)
Procedure: As it is useful to test the mono-adducts 20 and 21 on non-related bacteria as well, as there is a large and complex community of bacteria present in the gingival crevice causing periodontal diseases, the mono-adducts 20 and 21 were also tested on the unrelated organism F. nucleatum.
(§1) Bovine hemoglobin (Hb), Hb-agarose beads, hemin (Hm) and Hm-agarose beads were supplied by Sigma-Aldrich Company. The translated product of a synthetic HA2 gene, derived from the sequence of RgpA, was expressed in E. coli with a C-terminal polyhistidine tag (International Patent Application No. WO 2002061091) and is referred to as rHA2. rHA2 was functionally purified by Hb-agarose affinity chromatography. Anti-gingipain monoclonal antibody (mAb) 5A1 was prepared in mice. Secondary goat anti-mouse antibody conjugated with alkaline phosphatase (AP) was supplied by Dako Corporation. 4-nitrophenylphosphate (p-NPP) was supplied by Boehringer. P. gingivalis ATCC 33277 cells was used in all growth assays and cultures were anaerobically grown at 37° C. in an atmosphere containing CO2 (5%), H2 (10%) and N2 (85%). P. gingivalis and P. melaminogenica cells were grown in Center for Disease Control (CDC) medium and F. nucleatum cells were grown in Brain Heart Infusion (BHI) medium.

P. melaminogenica = assay: Growth inhibition assay on a related organism; type: cell-based, Prevotella melaminogenica; settings: 20 μM, over 72 h (FIG. 7B)
Procedure: as §1

[3] = test system: P. gingivalis ATCC 33277 cells; settings: literature (Poulet et al. 1999; Mitchell 1984); cited from earlier work
[4] = test system: P. gingivalis ATCC 33277 cells; assay: Growth inhibition assay, turbidity (optical density) over 72 h; type: cell-based, Porphyromonas gingivalis
Procedure: The mono-adducts 20 and 21 and metronidazole were tested on the targeted organism, P. gingivalis with the standard controls to compare the potency of the mono-adducts 20 and 21 compared to metronidazole towards the targeted organism. In a 96-well polystyrene plate divided into four sections, a series of dilutions of the mixture of the mono-adducts 20 and 21, metronidazole, DPIX 5 and DMSO were made up. These were transferred into test-tubes in quadruplicate and the P. gingivalis cells were added in triplicate leaving one test-tube as a blank control free of P. gingivalis cells. The growth of the P. gingivalis cells were monitored over 3 days (72 h) and growth was noted by the turbidity of the medium and recorded as the optical density.
The growth inhibition assays show differences in growth responses to metronidazole and the mixture of the mono-adducts 20 and 21.
as §1
Cultivation and biological testing were carried out on P. gingivalis ATCC 33277 cells and the cultures were anaerobically grown at 37° C. in an atmosphere containing CO2 (5%), H2 (10%) and N2 (85%). The cultures were inoculated with heme, menadione and either DMSO, DPIX 5, metronidazole, DPIX 5+ metronidazole or adduct 20 and 21. In a 96-well polystyrene plate divided into four sections, a series of dilutions of the mixture of the mono-adducts 20 and 21, metronidazole, DPIX 5 and DMSO were made up. These were transferred into test-tubes in quadruplicate and the P. gingivalis cells were added in triplicate leaving one test-tube as a blank control free of P. gingivalis cells. The growth of the P. gingivalis cells were monitored over 3 days (72 h) and growth was noted by the turbidity of the medium and recorded as the optical density.

| Compound | pKd [1] | pKd [2] | growth inhibition of F. nucleatum (F. nucleatum) | growth inhibition of P. melaminogenica (P. melaminogenica) | activity against P. gingivalis [3] | growth suppression of P. gingivalis ([4]; 0.5 μM, over 72 h (FIG. 6E)) | time after which activity is lost and P. gingivalis growth recovers ([4]; 1 μM (FIG. 6D)) | growth inhibition of P. gingivalis ([4]; 4 μM, over 72 h (FIG. 6B)) | growth inhibition of P. gingivalis ([4]; 20 μM, over 72 h (FIG. 6A, FIG. 7A)) | growth suppression of P. gingivalis ([4]; 2 KM, over 72 h (FIG. 6C)) | MIC ([4]; Porphyromonas gingivalis, ATCC33277, P. gingivalis, approximate, from FIG. 6, read-out: Minimum Inhibitory Concentration (MIC)) [µM] |
| --- | --- | --- | --- | --- | --- | --- | --- | --- | --- | --- | --- |
| hemin | 7.82 | ~7.82 | – | – | – | – | – | – | – | – | – |
| Cc1ncc([N+](=O)[O-])n1CCO [metronidazole] | – | – | complete inhibition | complete suppression of growth | excellent activity | no effect of growth suppression | approximately 50 h | complete inhibition | complete inhibition of growth | completely supresses growth | 1 to 2 (≈ 0.171 to 0.342 µg/mL) |
